According to paper PMC4917254 (PLoS ONE, 2016):
Where “and” joins values, the source holds several entries; their conditions need not be identical. Identical values can stand only once. Counter-ions that a name gives are not always drawn. Like-named read-outs stand apart in the source and are kept apart here.

Assays:
[1] = target: T1, α1β3N265Mγ2L GABAARs (Homo sapiens, UniProt P14867+P18507+P28472, N290M); experiment: Two-electrode voltage clamp, mutant α1β3N265Mγ2L GABAARs in Xenopus oocytes; type: cell-based
T1 construct: expressed in transfected cells; host or cells: Xenopus laevis oocytes injected with mRNA (10:1:10)
Description: (§1) Human complementary DNAs (cDNAs) of GABAAR subunits used in this study and their corresponding subcloned vectors include: α1, β1, β2 and γ2L in pCDM8; α2 and α3 in pCDNA3.1; α4 and δ in pCDNA1/Amp; α5 in pCDNA3; β3 in pGEMHE. […] Linearised plasmid DNAs were used as templates for the synthesis of messenger RNAs (mRNAs) using the mMessage mMachine T7 transcript kit from Ambion (Austin, TX, USA). Mutations were introduced to various GABAAR subunits of interest using the QuikChange II Site-Directed Mutagenesis Kit. For the α1M236W point mutation, forward primer 5′-[…]-3′ and reverse primer 5′-[…]-3′ were used. For the β2M286W point mutation, forward primer 5′-[…]-3′ and reverse primer 5′- […]-3′ were used. For the β3N265M point mutation, forward primer 5′- […]-3′ and reverse primer 5′-[…]-3′ were used.
(§2) The expression and functional characterisation of recombinant GABAARs in Xenopus oocytes were performed as previously described. The subunit mRNA ratios for the expression of αβγ receptors were adjusted according to the β subunit isoform in that when β2-containing receptors were expressed, a 1:1:3 ratio was used, whereas when β1- or β3-containing receptors were expressed, a 10:1:10 ratio was used to minimise the expression of homomeric β1/3 homomeric receptors. To express α4β2δ receptors, a 5:1:5 ratio was used, and the pharmacological characteristics of this receptor were as described in Hartiadi et al. (2016). The injection ratio used for the expression of α1β2 and β2γ2L receptors were 1:1 and 1:3 respectively. Approximately 2 to 10 ng of mRNA mixture was injected into each oocyte. Injected oocytes were stored in ND96 storage solution supplemented with 50 μg/mL gentamycin and tetracycline at 18°C.
(§3) Two-electrode voltage clamp recordings were performed on oocytes 2–5 days post-injection at room temperature (20–25°C) using a GeneClamp 500B amplifier (ADInstruments, Sydney, NSW, Australia) or a Warner OC-725C Oocyte Clamp (Warner Instrument Corp, Hamden, CT, USA). All experiments were conducted at a holding potential of –60 mV, and data were acquired with a PowerLab 2/25, and LabChart (version 5.0.2) software (ADInstruments, Sydney, NSW, Australia). The recording microelectrodes (0.2–1.1 MΩ) were generated from capillary glass (Harvard Apparatus, Holliston, MA, USA) using a single-stage glass microelectrode puller (Narishige, Tokyo, Japan), and were filled with 3 M KCl solution.
(§4) Perfusates containing these chemicals were made up fresh before each application. […] All experiments were performed using at least two different batches of oocytes.
(§5) Prism (version 5.04; GraphPad Software, La Jolla, CA, USA) was used for data analysis. All data are presented as mean ± standard error of the means (SEM).
(§6) Alternatively, the modulatory effect was expressed as the fold of potentiation, as shown in Eq 3.

[2] = target: T2, α1M236Wβ2γ2L GABAARs (Homo sapiens, UniProt P14867+P18507+P47870, M263W); experiment: Two-electrode voltage clamp, mutant α1M236Wβ2γ2L GABAARs in Xenopus oocytes; type: cell-based; settings: for agonist effect, mutant vs wild-type: p > 0.05, n = 5
T2 construct: expressed in transfected cells; host or cells: Xenopus laevis oocytes injected with mRNA
Description: as §1, §2, §3, §4, §5, §6

[3] = target: T3, α1β2M286Wγ2L GABAARs (Homo sapiens, UniProt P14867+P18507+P47870, M310W); experiment: Two-electrode voltage clamp, mutant α1β2M286Wγ2L GABAARs in Xenopus oocytes; type: cell-based
T3 construct: expressed in transfected cells; host or cells: Xenopus laevis oocytes injected with mRNA
Description: as §1, §2, §3, §4, §5, §6

[4] = target: T4, α1β2γ2L GABAARs (Homo sapiens, UniProt P14867+P18507+P47870); experiment: Two-electrode voltage clamp, recombinant α1β2γ2L GABAARs in Xenopus oocytes; type: cell-based; settings: for nH ± SEM: Hill slope of GABA curve, α1β2γ2L
T4 construct: expressed in transfected cells; host or cells: Xenopus laevis oocytes injected with mRNA (1:1:3)
Protocol: as §2, §3, §4, §5, §6

[5] = target: T5, α5β2γ2L GABAARs (Homo sapiens, UniProt P18507+P31644+P47870); experiment: Two-electrode voltage clamp, recombinant α5β2γ2L GABAARs in Xenopus oocytes; type: cell-based; settings: Hill slope of GABA curve
T5 construct: expressed in transfected cells; host or cells: Xenopus laevis oocytes injected with mRNA (1:1:3)
Protocol: as §2
(§7) Two-electrode voltage clamp recordings were performed on oocytes 2–5 days post-injection at room temperature (20–25°C) using a GeneClamp 500B amplifier (ADInstruments, Sydney, NSW, Australia) or a Warner OC-725C Oocyte Clamp (Warner Instrument Corp, Hamden, CT, USA). […]
as §6

[6] = target: T6, β2γ2L GABAARs (Homo sapiens, UniProt P18507+P47870); experiment: Two-electrode voltage clamp, recombinant β2γ2L GABAARs in Xenopus oocytes; type: cell-based; settings: Hill slope of GABA curve
T6 construct: expressed in transfected cells; host or cells: Xenopus laevis oocytes injected with mRNA
Protocol: as §2, §7, §6

[7] = target: α2β2γ2L GABAARs (Homo sapiens, UniProt P18507+P47869+P47870); settings: Hill slope of GABA curve
Protocol: as §2, §7, §6

[8] = target: T7, α3β2γ2L GABAARs (Homo sapiens, UniProt P18507+P34903+P47870); experiment: Two-electrode voltage clamp, recombinant α3β2γ2L GABAARs in Xenopus oocytes; type: cell-based; settings: Hill slope of GABA curve
T7 construct: expressed in transfected cells; host or cells: Xenopus laevis oocytes injected with mRNA (1:1:3)
Protocol: as §2, §7, §6

[9] = target: T8, α1β1γ2L GABAARs (Homo sapiens, UniProt P14867+P18505+P18507); experiment: Two-electrode voltage clamp, recombinant α1β1γ2L GABAARs in Xenopus oocytes; type: cell-based; settings: Hill slope of GABA curve
T8 construct: expressed in transfected cells; host or cells: Xenopus laevis oocytes injected with mRNA (10:1:10)
Protocol: as §2, §7, §6

[10] = target: T9, α4β2δ GABAARs (Homo sapiens, UniProt O14764+P47870+P48169); experiment: Two-electrode voltage clamp, recombinant α4β2δ GABAARs in Xenopus oocytes; type: cell-based; settings: for nH ± SEM: Hill slope of GABA curve, α4β2δ
T9 construct: expressed in transfected cells; host or cells: Xenopus laevis oocytes injected with mRNA (5:1:5)
Protocol: as §2, §3, §4, §5, §6

[11] = target: T10, α1β3γ2L GABAARs (Homo sapiens, UniProt P14867+P18507+P28472); experiment: Two-electrode voltage clamp, recombinant α1β3γ2L GABAARs in Xenopus oocytes; type: cell-based
T10 construct: expressed in transfected cells; host or cells: Xenopus laevis oocytes injected with mRNA (10:1:10)
Protocol: as §2, §7, §6

[12] = test system: α1β2, β2γ2L, αxβ2γ2L (x = 1, 2, 3 or 5), α1βxγ2L (x = 1, 2 or 3) and α4β2δ GABAARs; experiment: Kavain potentiation compared across GABAAR subtypes (two-electrode voltage clamp); type: cell-based, human; settings: 300 μM kavain, GABA EC3-7 (EC30 at α4β2δ), Tukey's test
Protocol: as §2, §7
Alternatively, the modulatory effect was expressed as the fold of potentiation, as shown in Eq 3. […]

CC(C)c1cccc(C(C)C)c1O [propofol]
propofol activity at the point-mutated receptors [1]: Pronounced attenuation | modulatory effect on GABA EC3 (1 μM) responses, mutant vs wild-type ([2]; 10 μM propofol, p < 0.01, n = 5): significantly attenuated | agonist effect, mutant vs wild-type ([2]; 100 μM propofol): not significantly different from wild-type receptors | receptor modulation in the presence of GABA EC3 (1 μM), mutant vs wild-type ([3]; 10 μM propofol, p < 0.001): significantly diminished | direct activation, mutant vs wild-type ([3]; 100 μM propofol, p > 0.05): unaffected | elicited current, % of the maximal propofol responses [4]: 91 ± 1.5% | enhancement of GABA EC3 responses, % of the maximal GABA responses [4]: 45 ± 3.5% and 50 ± 4.8%

CCOC(=O)c1ncn2c1CN(C)C(=O)c1cc(F)ccc1-2 [flumazenil]
effect of flumazenil alone on GABA responses ([4]; 10 μM GABA + 10 μM flumazenil): did not alter GABA responses

NCCCC(=O)O [GABA, γ-Aminobutyric acid]
nH ± SEM ([1]; Hill slope of GABA curve, α1β3N265Mγ2L): 1.4 ± 0.083 | nH ± SEM [5]: 1.0 ± 0.078 | nH ± SEM [6]: 0.63 ± 0.034 | nH ± SEM [7]: 1.4 ± 0.041 | nH ± SEM [8]: 1.2 ± 0.054 | nH ± SEM ([2]; Hill slope of GABA curve, mutant printed as α1M286Wβ2γ2L in table): 0.80 ± 0.053 | nH ± SEM [9]: 1.1 ± 0.059 | nH ± SEM ([3]; Hill slope of GABA curve, α1β2M286Wγ2L): 1.1 ± 0.036 | nH ± SEM [10]: 0.70 ± 0.095 | nH ± SEM ([10]; + 300 μM kavain): 0.59 ± 0.11 | nH ± SEM ([11]; Hill slope of GABA curve, α1β3γ2L): 1.2 ± 0.070 | nH ± SEM [4]: 0.99 ± 0.062 | nH ± SEM ([4]; + 300 μM kavain): 0.75 ± 0.026

CCOC(=O)c1cncn1[C@H](C)c1ccccc1 [etomidate, Etomidate hydrochloride (HCl)]
modulation (3 μM) and activation (30 μM) of the point-mutated receptors ([1]; data not shown): did not modulate (at 3 μM) nor activate (at 30 μM) | modulatory effect on GABA EC3 (1 μM) responses, mutant vs wild-type ([2]; 3 μM etomidate, p < 0.0001, n = 5): significantly attenuated | agonist effect, mutant vs wild-type ([2]; 30 μM etomidate): not significantly different from wild-type receptors | etomidate sensitivity (modulatory and agonist effects) ([3]; data not shown): abolished | enhancement of GABA EC3 responses, % of maximal GABA responses [4]: 53 ± 2.6% and 45 ± 3.1%

CN1C(=O)CN=C(c2ccccc2)c2cc(Cl)ccc21 [diazepam]
enhancement of GABA current, normalised to 10 μM GABA responses [4]: 260 ± 4.2% | flumazenil sensitivity of diazepam enhancement [4]: flumazenil-sensitive

DL-kavain
current elicited by kavain alone, % of GABA EC3 responses ([1]; 300 μM kavain): 3.3 ± 1.0% | kavain modulation of GABA EC3 responses ([1]; GABA EC3 + 300 μM kavain, p < 0.001 vs α1β3γ2L): 110 ± 14% | subtype selectivity of potentiation [12]: no significant subtype selectivity | current elicited by kavain alone, % of the GABA EC3 responses ([2]; 300 μM kavain, n = 6): approximately 63 ± 5.2% | potentiation by co-application, % of GABA EC3 responses ([2]; GABA EC3 + 300 μM kavain, n = 6, kavain-elicited current not deducted): 220 ± 11% | current elicited by kavain alone, % of the GABA EC3 responses ([3]; 300 μM kavain, p < 0.0001 vs wild-type): 96 ± 5.8% | modulatory effect on GABA EC3-elicited responses, % of GABA EC3 ([3]; GABA EC3 + 300 μM kavain, p > 0.05 vs α1β2γ2L): 270 ± 8.7% | increase of the maximal response evoked by GABA ([10]; 300 μM kavain, p < 0.0001): two fold | kavain modulation of GABA EC3 responses ([11]; GABA EC3 + 300 μM kavain): 260 ± 18% | GABA-enhancing action of kavain in the presence of flumazenil ([4]; 10 μM GABA + 300 μM kavain + 10 μM flumazenil): unaffected in the presence of flumazenil | enhancement of GABA current, normalised to 10 μM GABA responses ([4]; 10 μM GABA + 300 μM kavain, n = 5): 260 ± 11% | intrinsic agonist activity, currents relative to the 10 mM GABA responses ([4]; 300 μM kavain alone, n = 5): < 1% | enhancement of GABA-elicited responses ([4]; 300 μM kavain, GABA EC3 (10 μM), n = 6): 170 ± 23% | enhancement depending on GABA concentration ([4]; 300 μM kavain, GABA concentration-response curve): modest enhancement at GABA concentrations below EC45 | current elicited by kavain alone, % of the GABA EC3 responses ([4]; 300 μM kavain, wild-type, n = 4): 15 ± 3.6% | potentiation by co-application, % of GABA EC3 responses ([4]; GABA EC3 + 300 μM kavain, n = 4, kavain-elicited current not deducted): 250 ± 7.8%
